Laboratory results: publication PMC8400955 (Pharmaceuticals, 2021)
Values joined by “and” are separate entries in the source; they are usually repeats but may differ in a detail not shown here. Equal entries are not always repeated. Where two headings read alike, the source gives them in different places.

Tests used:
[1] = Single-dose PK and bioavailability of ZB716 in rats; format: in vivo; conditions: Sprague Dawley, rat, plasma; for bioavailability: PO 6 mg/kg/day vs IV 2 mg/kg/day
[2] = target: T1, CYP1A2 (Homo sapiens, UniProt P05177); assay: CYP inhibition in human liver microsomes, CYP1A2; format: in vitro ADME; conditions: HLM, marker substrate Phenacetin
T1 sequence (P05177 1-516): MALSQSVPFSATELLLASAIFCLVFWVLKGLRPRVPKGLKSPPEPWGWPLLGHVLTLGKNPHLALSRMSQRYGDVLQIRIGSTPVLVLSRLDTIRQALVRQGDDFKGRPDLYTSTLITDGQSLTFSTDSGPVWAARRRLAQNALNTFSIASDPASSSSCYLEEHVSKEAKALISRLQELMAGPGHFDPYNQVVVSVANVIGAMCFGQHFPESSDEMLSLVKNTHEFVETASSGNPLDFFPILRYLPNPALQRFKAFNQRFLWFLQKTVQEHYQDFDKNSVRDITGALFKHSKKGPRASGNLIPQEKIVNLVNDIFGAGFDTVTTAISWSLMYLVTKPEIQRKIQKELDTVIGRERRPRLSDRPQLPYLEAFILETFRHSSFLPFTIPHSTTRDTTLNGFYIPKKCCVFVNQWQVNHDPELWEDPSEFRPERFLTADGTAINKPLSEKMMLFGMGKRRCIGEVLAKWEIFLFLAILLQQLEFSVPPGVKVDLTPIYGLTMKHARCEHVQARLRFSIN
Description: . The inhibition of CYP2B6 and 3A4 (when midazolam was used as the substrate) by ZB716 was not observed. The inhibitory potential of ZB716 on human CYP enzyme activities appears relatively low.
The final concentrations of ZB716 in the incubation system were 0, 0.05, 0.15, 0.5, 1.5, 5, and 15 µM (final organic solvent concentration ≤ 1%). […] . […] The concentrations of the isoform-specific metabolites derived from marker substrates were measured by UPLC–MS/MS. The IC50 values were calculated from the percentages of the rate of the metabolite formation relative to non-inhibited controls vs. the concentrations of ZB716 or positive control inhibitors. All incubations were performed in triplicate. The mean of the enzyme activity (% of non-inhibited control) for each concentration was plotted against the log inhibitor concentration, and fitted to an IC50 curve.

[3] = Metabolic stability in mouse hepatocytes; format: in vitro ADME
Description: (§1) Hepatocytes of humans (#X008001), dogs (#M00205), rats (#M00005), and mice (#M005052) were purchased from BioIVT, NY, USA. Monkey hepatocytes were procured from RILD, Shanghai, China. The metabolic stability of ZB716 in human, monkey, dog, rat and mouse hepatocytes was investigated by incubating ZB716 with human, monkey, dog, rat, and mouse hepatocytes (0.5 × 10^6 cells/mL), or with incubation medium only.
(§2) parent disappearance vs. incubation time curve.
(§3) Scaled-up Clint = kV/N × Scaling Factor
(§4) metabolite formed during the reaction.

[4] = system: mouse hepatocytes; assay: Metabolic stability in mouse hepatocytes; format: in vitro ADME; conditions: 1 μM
Description: as §1, §2, §3, §4

[5] = Stability in incubation medium only; format: in vitro ADME; conditions: 1 μM
Description: as §1, §2, §3, §4

[6] = target: CYP2C9 (Homo sapiens, UniProt P11712); assay: CYP phenotyping, recombinant CYP2C9
Chain of CYP2C9 (P11712 whole entry): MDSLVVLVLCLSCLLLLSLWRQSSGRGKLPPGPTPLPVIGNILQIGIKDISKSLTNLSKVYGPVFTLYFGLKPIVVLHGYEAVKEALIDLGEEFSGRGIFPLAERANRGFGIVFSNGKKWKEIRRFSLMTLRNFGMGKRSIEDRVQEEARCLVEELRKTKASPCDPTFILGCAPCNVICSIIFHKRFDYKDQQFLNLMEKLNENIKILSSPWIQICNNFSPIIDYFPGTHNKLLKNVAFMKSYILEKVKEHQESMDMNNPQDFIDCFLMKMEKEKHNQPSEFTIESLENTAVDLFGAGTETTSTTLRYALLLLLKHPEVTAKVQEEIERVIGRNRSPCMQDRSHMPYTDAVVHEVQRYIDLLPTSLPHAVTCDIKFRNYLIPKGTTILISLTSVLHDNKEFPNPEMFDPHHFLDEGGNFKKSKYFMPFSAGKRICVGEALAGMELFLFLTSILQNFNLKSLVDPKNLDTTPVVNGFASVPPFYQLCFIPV

[7] = target: CYP2D6 (Homo sapiens, UniProt P10635); assay: CYP phenotyping, recombinant CYP2D6
Chain of CYP2D6 (P10635 whole entry): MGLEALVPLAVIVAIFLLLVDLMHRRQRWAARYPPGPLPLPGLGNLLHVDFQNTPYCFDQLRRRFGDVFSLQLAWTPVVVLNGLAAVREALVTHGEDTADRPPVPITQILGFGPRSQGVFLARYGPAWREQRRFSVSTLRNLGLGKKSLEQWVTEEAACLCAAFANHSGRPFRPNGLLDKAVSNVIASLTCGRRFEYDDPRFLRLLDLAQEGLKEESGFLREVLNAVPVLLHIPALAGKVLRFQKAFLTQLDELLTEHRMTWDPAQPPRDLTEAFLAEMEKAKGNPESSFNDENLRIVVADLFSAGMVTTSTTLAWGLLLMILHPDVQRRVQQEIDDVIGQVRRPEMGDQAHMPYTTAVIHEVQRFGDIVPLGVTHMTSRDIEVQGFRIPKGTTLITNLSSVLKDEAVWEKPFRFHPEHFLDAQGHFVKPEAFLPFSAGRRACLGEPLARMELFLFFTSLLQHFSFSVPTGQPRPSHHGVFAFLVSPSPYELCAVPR

[8] = target: CYP2E1 (Homo sapiens, UniProt P05181); assay: CYP phenotyping, recombinant CYP2E1
Chain of CYP2E1 (P05181 whole entry): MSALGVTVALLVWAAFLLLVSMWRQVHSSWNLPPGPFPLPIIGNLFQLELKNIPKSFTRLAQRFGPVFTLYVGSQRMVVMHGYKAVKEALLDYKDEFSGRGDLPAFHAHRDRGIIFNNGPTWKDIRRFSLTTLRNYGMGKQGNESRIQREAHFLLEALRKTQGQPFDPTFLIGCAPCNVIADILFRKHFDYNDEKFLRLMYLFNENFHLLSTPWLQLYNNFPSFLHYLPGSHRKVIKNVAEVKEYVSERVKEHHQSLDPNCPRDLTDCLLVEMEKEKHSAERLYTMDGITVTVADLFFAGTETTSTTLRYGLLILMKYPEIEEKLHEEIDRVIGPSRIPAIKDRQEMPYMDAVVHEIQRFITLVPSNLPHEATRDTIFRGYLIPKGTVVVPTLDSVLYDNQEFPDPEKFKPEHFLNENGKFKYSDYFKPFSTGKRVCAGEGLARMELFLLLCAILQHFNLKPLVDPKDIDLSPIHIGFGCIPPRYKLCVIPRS

[9] = female, single dose, IV 2 mg/kg/day, F
[10] = female, single dose, PO 6 mg/kg/day, F
[11] = female, single dose, PO 30 mg/kg/day, F
[12] = female, single dose, PO 100 mg/kg/day, F
[13] = female, single dose, PO 400 mg/kg/day, F
[14] = male, single dose, IV 2 mg/kg/day, M
[15] = male, single dose, PO 6 mg/kg/day, M
[16] = male, single dose, PO 30 mg/kg/day, M
[17] = male, single dose, PO 100 mg/kg/day, M
[18] = male, single dose, PO 400 mg/kg/day, M

C[C@]12CC[C@@H]3c4ccc(B(O)O)cc4C[C@@H](CCCCCCCCC[S+]([O-])CCCC(F)(F)C(F)(F)F)[C@H]3[C@@H]1CC[C@@H]2O (stereo partly shown) [ZB716, fulvestrant-3-boronic acid]
Tmax ([1]; both sexes, single oral administration, mostly, post-dose, read-out: Tmax): 30 to 120 min | bioavailability ([1]; female, F): 5.98% | AUC(0-t) [1, 9]: 6440 ng·h/mL | Cmax [1, 9]: 4530 ng/mL | Tmax ([1]; female, single dose, IV 2 mg/kg/day, F, read-out: Tmax (median)): 5 min | AUC(0-t) [1, 10]: 1160 ng·h/mL | Cmax [1, 10]: 347 ng/mL | Tmax ([1]; female, single dose, PO 6 mg/kg/day, F, read-out: Tmax (median)): 30 min | AUC(0-t) [1, 11]: 15700 ng·h/mL | Cmax [1, 11]: 3520 ng/mL | Tmax ([1]; female, single dose, PO 30 mg/kg/day, F, read-out: Tmax (median)): 60 min | AUC(0-t) [1, 12]: 30500 ng·h/mL | Cmax [1, 12]: 3590 ng/mL | Tmax ([1]; female, single dose, PO 100 mg/kg/day, F, read-out: Tmax (median)): 30 min | AUC(0-t) [1, 13]: 55600 ng·h/mL | Cmax [1, 13]: 4310 ng/mL | Tmax ([1]; female, single dose, PO 400 mg/kg/day, F, read-out: Tmax (median)): 60 min | bioavailability ([1]; male, M): 6.36% | AUC(0-t) [1, 14]: 4910 ng·h/mL | Cmax [1, 14]: 5370 ng/mL | Tmax ([1]; male, single dose, IV 2 mg/kg/day, M, read-out: Tmax (median)): 5 min | AUC(0-t) [1, 15]: 936 ng·h/mL | Cmax [1, 15]: 321 ng/mL | Tmax ([1]; male, single dose, PO 6 mg/kg/day, M, read-out: Tmax (median)): 30 min | AUC(0-t) [1, 16]: 5410 ng·h/mL | Cmax [1, 16]: 1720 ng/mL | Tmax ([1]; male, single dose, PO 30 mg/kg/day, M, read-out: Tmax (median)): 120 min | AUC(0-t) [1, 17]: 12500 ng·h/mL | Cmax [1, 17]: 3010 ng/mL | Tmax ([1]; male, single dose, PO 100 mg/kg/day, M, read-out: Tmax (median)): 30 min | AUC(0-t) [1, 18]: 32600 ng·h/mL | Cmax [1, 18]: 2860 ng/mL | Tmax ([1]; male, single dose, PO 400 mg/kg/day, M, read-out: Tmax (median)): 30 min | IC50 [2]: > 15 µM | half-life at 1 μM ([3]; read-out: Estimated In Vitro t1/2): 34.4 ± 0.6 min | hepatocyte CLint at 1 μM ([3]; read-out: In Vitro Clint): 40.3 ± 0.7 µL/min/1e6 cells | CLint scaled at 1 μM ([3]; read-out: Scaled-Up Clint): 476 ± 8 mL/min/kg | Remaining at 120 min [4]: 6.24 ± 0.58% | Estimated In Vitro t1/2 [5]: ∞ | Remaining at 120 min [5]: 100% | half-life at 2 µM ([6]; human): 18.6 ± 0.4 min | Clint ([6]; recombinant CYP2C9, 2 µM ZB716): 0.746 ± 0.015 µL/min/pmol CYP | half-life at 2 µM ([7]; human): 18.3 ± 3.3 min | Clint ([7]; recombinant CYP2D6, 2 µM ZB716): 0.773 µL/min/pmol CYP and 0.773 ± 0.142 µL/min/pmol CYP | half-life at 2 µM ([8]; human): 19.4 ± 1.2 min | Clint ([8]; recombinant CYP2E1, 2 µM ZB716): 0.716 ± 0.044 µL/min/pmol CYP
